Consider six compounds from paper PMC7055211 (Scientific Reports, 2020).

Molecules are shown by their SMILES. Entries after “also recorded” stand apart in the source; their conditions may differ. Like-named read-outs stand apart in the source and are kept apart here. Bounds are passed on as bounds.

Series [1] can be described thus: Prazole degradation rate: prodrug remaining in pH 5.8 buffer by 1D proton NMR. As to conditions: for prodrug remaining at 17 hours: 1D proton NMR.
The nature of series [2]: WST-1 cellular metabolism measurement for the five prazoles (CC50). The class given is cell-based. Particulars: human, 293 T cells, 50% metabolic activity of control, WST reagent, read-out: Cytotoxicity (CC50).
Another series has as its system HIV-1. As to the kind of experiment: microbe, parasite or virus in culture. The class given is cell-based. As to conditions: for EC50: Human immunodeficiency virus 1, HEK-293T.
The test system of a further series is EBOV (Zaire). In words: microbe, parasite or virus in culture. The class given is cell-based, Ebola virus.
The test system of series [3] is pseudotyped virus using the EBOV Env (G) protein. As to conditions: cited from earlier work.
Another series deals with T1, Tsg101 UEV domain (Homo sapiens, UniProt Q99816).
T1 construct: purified ^15N-labeled Tsg101 UEV domain protein complexed to various prazoles; made in house
T1 sequence (Q99816 2-145 limits assumed): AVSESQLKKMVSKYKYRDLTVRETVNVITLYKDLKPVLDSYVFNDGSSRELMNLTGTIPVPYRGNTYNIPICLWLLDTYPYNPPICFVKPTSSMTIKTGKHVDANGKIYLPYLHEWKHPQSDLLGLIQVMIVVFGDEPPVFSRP
As to the kind of experiment: NMR chemical shift perturbations of Tsg101 UEV domain complexed with prazoles. The class given is binding. As to conditions: 15N-Tsg101 UEV, pH 5.8, 300 K.

Series [4] in a line: in vitro. Particulars: human.
Another series relates to CLIX-FZ cells. As to the kind of experiment: WST-1 metabolic activity of CLIX-FZ cells. The class given is cell-based. Particulars: 40 μM concentration range, WST-1, 24 hr. The procedure: Figure 4 EBV replication is tenatoprazole-sensitive. Latent EBV was reactivated in CLIX-FZ cells by addition of doxycycline in the presence of DMSO (black bars) or DMSO plus tenatoprazole (20 µM or 40 µM, grey bars); non-treated cells are shown as white bars. After 72 hr, cells and conditioned media were harvested. Panel A, extracellular EBV DNA measured in pellet fraction of conditioned media. Panel B, intracellular EBV DNA measured in lysed cells. EBV DNA was determined by quantitative-PCR (qPCR) for the EBV BALF5 gene. EBV DNA copy number from each preparation was normalized to the DMSO-treated control. Panel C, metabolic activity of cells in the presence of tenatoprazole. The cells were grown for 24 hr in media containing the indicated concentrations of doxycycline and tenatoprazole followed by assessment of metabolic activity assessed using the WST-1 assay. Panel D, fractionation of intracellular DNA. […] DNA was extracted from each fraction and the relative number of EBV genomes from each fraction was determined by qPCR using primers directed towards the EBV BALF5 gene. […]
Metabolic activity of the cells in the presence of the prazole drugs for 24 hr was assessed using the WST-1 assay (Roche Applied Science) following the manufacturer's protocol.

In a further series the test system is HIV-1 Gag-HA VLP. The class given is cell-based.
For series [5], the system named is HIV-1 P7L-Gag (disrupted PTAP motif). The class given is cell-based.
Another series deals with ZIKV PRVABC59. The class given is cell-based, Zika virus.
Series [6] can be described thus: in vitro. Particulars: human. The source holds these as a separate data set.
Another series relates to MAYV TRVL 15537. The class given is cell-based, Mayaro virus.
The subject of another series is EBV. The class given is cell-based, Epstein Barr virus. As to conditions: CLIX-FZ; for Virus Production (resistant or susceptible), EBV: BALF5.
The next series has as its system DENV 2 strain 16681. The class given is cell-based, Dengue virus type 2.
Series [7] is described as follows: in vitro. Particulars: human. The source holds these as a separate data set.
In series [8] the test system is Mahoney strain of poliovirus. The class given is cell-based, Poliovirus Type I Mahoney. Particulars: 293 T cells, up to 100 μM, plaque assay.
Setting [9] is: read-out: Approximate Effective Concentration (EC50).
Setting [10] is: read-out: EC50, inhibition of HIV-1 production.
Where [11] appears, read: doxycycline, 20 µM and 40 μM, 72 hr, qPCR.

Turning to `Cc1c(OCC(F)(F)F)ccnc1C[S+]([O-])c1nc2ccccc2[nH]1` (stereo not shown) [Lansoprazole, lansoprazole], the “prodrug remaining at 17 hours” value in series [1] (2 mM prazole, 300 K) is given as 20%. In addition, in series [2], the CC50 at 24 h is 50 µM. Also, the “Selectivity Index (CC50/EC50)” value with HIV-1 (HIV-1, Table 3) was 2.0. In addition, the EC50 with HIV-1 (setting [9]) was 25 µM; with HIV-1 (setting [10]), about 25 µM.

Regarding `Cc1c(OCC(F)(F)F)ccnc1C[S@@+]([O-])c1nc2ccccc2[nH]1` [dexlansoprazole], the “conversion rate, dexlansoprazole compared with lansoprazole” value in series [1] (Supplemental Fig. 3A) is on record as “no significant difference in rates”.

On to `COc1ccc2nc([S@@+]([O-])Cc3ncc(C)c(OC)c3C)[nH]c2c1` [Esomeprazole, Esomeprazole magnesium hydrate], for which the “inhibitory effect on EBOV” value in the series with EBOV (Zaire) is recorded as “no significant inhibitory effect”. For the same compound, the “prodrug remaining at 17 hours” value in series [1] (2 mM prazole, 300 K) is ~ 55%. Besides, in series [2], the CC50 at 24 h was 75 µM. The EC50 in series [3] was 50 µM; in the series with HIV-1 (setting [9]), 75 µM; in the series with HIV-1 (setting [10]), about 75 µM. Further, the “Selectivity Index (CC50/EC50)” value in the series on HIV-1 came to 1.0.

As to `COCCCOc1ccnc(C[S+]([O-])c2nc3ccccc3[nH]2)c1C` (stereo not shown) [Rabeprazole, rabeprazole sodium], the “time course of prodrug disappearance” value in series [1] (2 mM prazole, 300 K) is listed as “completely disappearing in less than ten hours”. In series [2], the CC50 at 24 h was found to be 150 µM. Further, in the series on HIV-1, the “inhibition of HIV-1 production (in words)” value is “strongest inhibitory effect”. Further, in the series on HIV-1 (HIV-1, Table 3), the “Selectivity Index (CC50/EC50)” value is reported as 10. Moreover, the EC50 with HIV-1 (setting [9]) is 15 µM; in the series with HIV-1 (setting [10]), about 15 µM.

For `COc1ccnc(C[S+]([O-])c2nc3ccc(OC(F)F)cc3[nH]2)c1OC` (stereo not shown) [Pantoprazole, pantoprazole sodium hydrate], in series [1] (2 mM prazole, 300 K), the “prodrug remaining at 17 hours” value came out at 96%. Also, the CC50 at 24 h in series [2] came to 40 µM. For the same compound, the “inhibition of HIV-1 production (in words)” value in the series on HIV-1 was “negligible inhibitory activity”. For the same compound, the “Selectivity Index (CC50/EC50)” value in the series with HIV-1 (HIV-1, Table 3) was under 0.5. For the same compound, the EC50 in the series on HIV-1 (setting [9]) was over 75 µM.

Regarding `COc1ccc2[nH]c([S+]([O-])Cc3ncc(C)c(OC)c3C)nc2n1` (stereo not shown) [Tenatoprazole, tenatoprazole], at Tsg101 UEV domain, the “chemical shift change of backbone amide of S41” value was 0.29 ppm. Further, the “Selectivity index (CC50/EC50), EBOV” value with EBOV (Zaire) is reported as “Susceptible (1.6)”. In addition, the EC50 in the series with EBOV (Zaire) (Zaire ebolavirus, HeLa, 24 h, read-out: EC50, inhibition of EBOV spread) is 80 µM; with HIV-1 (setting [9]), 50 µM; in the series with HIV-1 (setting [10]) it was about 50 µM. Also, the CC50 in “in vitro [4]” was 123 µM; in “in vitro [6]”, 129 µM. Also, the “metabolic capacity of host CLIX-FZ cells” value with CLIX-FZ cells is “some impairment of metabolic capacity”. For the same compound, the “Gag accumulation in cell lysate” value in the series with HIV-1 Gag-HA VLP was “drug concentration-dependent decline in Gag accumulation”. Further, the VLP production result in the series on HIV-1 Gag-HA VLP was “dose-dependent inhibition of VLP production”. Also, the VLP release efficiency result in the series on HIV-1 Gag-HA VLP is “no change”. In addition, the “Alix rescue of P7L-Gag release in presence of tenatoprazole” value in [5] (293T, concentration range to which the WT is susceptible) is listed as 2–3 fold. For the same compound, in [5] (in the presence or absence of the drug), the “Alix-mediated stimulation of p25 to p24 maturation” value is recorded as ~ 3 fold. Further, the “reduction in ZIKV infectious virus output” value in the series on ZIKV PRVABC59 was under 2 fold. In addition, in the series on ZIKV PRVABC59 (293 T, infectivity, PFU), the “Virus Production (resistant or susceptible), ZIKV” value is listed as “Resistant”. In series [1] (2 mM prazole, 300 K), the “prodrug remaining at 17 hours” value is reported as ~ 5%. In the series with MAYV TRVL 15537, the “Virus Production (resistant or susceptible), MAYV” value is listed as “sensitive; also recorded: Susceptible (2.5)”. The “reduction of MAYV titer” value in the series with MAYV TRVL 15537 is over 2 log10. In the series with MAYV TRVL 15537 (293 T), the “Selectivity index (CC50/EC50), MAYV” value was “Susceptible (2.5)”. In series [2], the CC50 at 24 h turned out to be 125 µM. For the same compound, the “Selectivity index (CC50/EC50), EBV” value in the series on EBV is given as about 4. For the same compound, in the series with EBV (setting [11]), the “intracellular EBV load” value is listed as “increased”. Also, the “number of released (extracellular) EBV particles” value in the series on EBV (setting [11]) is “dose-dependent reduction”. Further, the “Virus Production (resistant or susceptible), EBV” value in the series on EBV (qPCR) is reported as “Susceptible”; in the series on EBV (qPCR, listed as tenatoprazole) it was “sensitive”. Further, the “Virus Production (resistant or susceptible), HIV-1” value in the series on HIV-1 is “sensitive”. Further, the “Selectivity Index (CC50/EC50)” value with HIV-1 (HIV-1, Table 3) came to 2.5. In addition, the “DENV replication, tenatoprazole susceptibility” value in the series with DENV 2 strain 16681 is reported as “no tenatoprazole susceptibility”. For the same compound, in the series on DENV 2 strain 16681 (293 T, infectivity, FFU), the “Virus Production (resistant or susceptible), DENV” value was “Resistant”. Further, the viability at 80 µM in the series “in vitro [7]” was over 80%. Further, the PV tenatoprazole susceptibility entry in series [8] was “no tenatoprazole susceptibility”.
